From BindingDB's records for doi:10.1021/jm0497242 (Leadscope, 2004)

Target: T1, Tyrosine-protein phosphatase non-receptor type 1 (Homo sapiens, UniProt P18031)
T1 sequence (P18031 whole entry): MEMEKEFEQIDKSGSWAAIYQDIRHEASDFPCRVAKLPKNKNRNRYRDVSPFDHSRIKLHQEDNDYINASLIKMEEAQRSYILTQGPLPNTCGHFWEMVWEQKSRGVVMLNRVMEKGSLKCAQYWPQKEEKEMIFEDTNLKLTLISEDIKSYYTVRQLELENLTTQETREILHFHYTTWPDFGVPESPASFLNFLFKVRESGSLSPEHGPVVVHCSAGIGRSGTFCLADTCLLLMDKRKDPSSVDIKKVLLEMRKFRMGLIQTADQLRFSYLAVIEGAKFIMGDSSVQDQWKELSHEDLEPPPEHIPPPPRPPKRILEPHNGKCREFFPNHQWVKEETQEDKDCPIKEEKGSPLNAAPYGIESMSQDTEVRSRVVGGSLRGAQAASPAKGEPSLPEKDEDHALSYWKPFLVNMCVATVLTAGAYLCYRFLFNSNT
Experiment: Concentration required for 50% inhibition of tyrosine phosphatase 1B

| IC50 | Structure (SMILES) |
| --- | --- |
| 58.8 nM | O=C(O)[C@@H](Cc1ccccc1)Oc1ccc(-c2ccc(-c3c(Cc4ccccc4)sc4ccccc34)cc2)cc1Br |
| 27.5 nM | O=C(O)c1cc(S(=O)(=O)Oc2ccc(-c3ccc(-c4c(Cc5ccccc5)oc5ccccc45)cc3)cc2)ccc1O [5-[4''-(2-Benzyl-benzofuran-3-yl)-biphenyl-4-yloxysulfonyl]-2-hydroxy-benzoic acid] |
| 83.1 nM | O=C(O)CNc1cc(-c2ccc(-c3c(Cc4ccccc4)oc4ccccc34)cc2)ccc1OCCc1ccccc1 [[4'-(2-Benzyl-benzofuran-3-yl)-4-phenethyloxy-biphenyl-3-ylamino]-acetic acid] |
